15 compounds from patent US9133262B2, “Somatostatin antagonists” (Ipsen Pharma S.A.S., priority 1996, dated 2015) can be followed below.

Molecules are shown by their SMILES. Read-outs that look alike come from different tables or passages of the source. Positions of bridges follow the written chain, without caps; N, C: chain ends. Non-standard residues stand in square brackets, D forms with d. Residues, ends and D or L forms follow the SMILES beside them. Phe(F5) = N[C@@H](Cc1c(F)c(F)c(F)c(F)c1F)C(=O)O; Phe(4-Cl) = N[C@@H](Cc1ccc(Cl)cc1)C(=O)O; dPhe(4-Cl) = N[C@H](Cc1ccc(Cl)cc1)C(=O)O; Dip = N[C@H](C(=O)O)C(c1ccccc1)c1ccccc1; Phe(3-F) = N[C@@H](Cc1cccc(F)c1)C(=O)O; Phe(4-F) = N[C@@H](Cc1ccc(F)cc1)C(=O)O; 2Nal = N[C@@H](Cc1ccc2ccccc2c1)C(=O)O; d2Nal = N[C@H](Cc1ccc2ccccc2c1)C(=O)O; Phe(2-F) = N[C@@H](Cc1ccccc1F)C(=O)O; 3Pal = N[C@@H](Cc1cccnc1)C(=O)O; Tle = CC(C)(C)[C@H](N)C(=O)O

For this assay, the system named is rat pituitary cells. It is filed as cell-based. From the text:
Bioassay on the In Vitro Release of Growth Hormone
(a) Rat Pituitary Cell Dispersion
Pituitaries from adult Charles River CD male rats (Wilmington, Mass.) housed under controlled conditions were dispersed and cultured using aseptic technique by modification of previously described methods (Hoefer, M. T., et al., Mol. Cell. Endocrinol. 35:229 (1984); Ben-Jonathan, N., et al., Methods Enzymol. 103:249 (1983); and Heiman, M. L., et al., Endocrinology 116:410 (1985)). Pituitaries were removed from sacrificed rats, sectioned, and then placed into a siliconized, liquid scintillation vial containing 2 ml 0.2% trypsin (Worthington Biochemicals, Freehold, N.J.) in sterile-filtered Krebs-Ringer bicarbonate buffer supplemented with 1% bovine serum albumin, 14 mM glucose, modified Eagle medium (MEM) vitamin solution, and MEM amino acids (Gibco Laboratories, Grand Island, N.Y.) (KRBGA). All glassware was siliconized as described by Sayers, et al., Endocrinology 88:1063 (1971). The fragments were incubated in a water bath for 35 min at 37° C. with agitation. The vial contents then were poured into a scintillation vial containing 2 ml 0.1% DNase (Sigma Chemical Co., St. Louis, Mo.) in KRBGA and incubated for 2 min at 37° C. with agitation. After incubation, the tissue was decanted into a 15 ml centrifuge tube and allowed to settle. Medium was discarded, and pituitary sections were washed 3 times with 1 ml fresh-KRBGA. The cells were then dispersed in 2 ml 0.05% LBI (lima bean trypsin inhibitor, Worthington Biochemicals) by gently drawing the fragments into and expelling them out of a siliconized, fire polished Pasteur pipette. Dispersed cells were then filtered through a 630 μm diameter Nylon mesh (Tetko, Elmsford, N.Y.) into a fresh 15 ml centrifuge tube. An additional 2 ml of 0.05% LBI solution was used to rinse the first tube and was transferred to the second tube with filtering.
The dispersed cells were then further diluted with approximately 15 ml sterile-filtered Dulbecco's modified Eagle medium (GIBCO), which was supplemented with 2.5% fetal calf serum (GIBCO), 3% horse serum (GIBCO), 10% fresh rat serum (stored on ice for no longer than 1 hr) from the pituitary donors, 1% MEM non-essential amino acids (GIBCO), and gentamycin (10 ng/ml; Sigma) and nystatin (10,000 U/ml; GIBCO). The cells were poured into a 50 ml round-bottomed glass extraction flask with a large diameter opening and then randomly plated at a density of approximately 200,000 cells per well (Co-star cluster 24; Rochester Scientific Co., Rochester, N.Y.). The plated cells were maintained in the above Dulbecco's medium in a humidified atmosphere of 95% air and 5% CO2 at 37° C. for 4-5 days.
(c) Experimental Incubation and IC50 Determination
In preparation for a hormone challenge, the cells were washed 3 times with medium 199 (GIBCO) to remove old medium and floating cells. Each treatment well contained a total volume of 1 ml medium 199 containing 1% BSA (fraction V; Sigma) with treatments as described below. Each antagonist candidate was tested using a single 24-well cell culture plate. Each treatment was performed in triplicate. Each plate contained 8 treatment groups: one 1 nM growth hormone releasing factor (GRF) (1-29)NH2-stimulated control group; one 1 nM somatostatin-inhibited control group in the presence of 1 nM GRF(1-29)NH2; and 6 doses of a given antagonist in the presence of both 1 nM SRIF and 1 nM GRF per plate. After 3 hrs at 37° C. in a air/carbon dioxide atmosphere (95/5%), the medium was removed and stored at −20° C. until radioimmunoassayed for growth hormone content. IC50's of each antagonist versus 1 nM SRIF were calculated using a computer program (SigmaPlot, Jandel Scientific, San Rafael, Calif.) with the maximum response constrained to the value of the 1 nM GRF(1-29)NH2-stimulated control.

Where [1] appears, read: cultured rat pituitary cells, 1 nM SRIF and 1 nM GRF(1-29)NH2, 3 hrs at 37° C., growth hormone by radioimmunoassay, read-out: IC50 of antagonist versus 1 nM SRIF (growth hormone release).

What is called IC50 is the midpoint of a concentration-inhibition curve. `CC(C)[C@H](NC(=O)[C@H](CCCCN)NC(=O)[C@@H](Cc1c[nH]c2ccccc12)NC(=O)[C@H](Cc1ccc(O)cc1)NC(=O)[C@@H](Cc1ccc(Cl)cc1)NC(=O)[C@@H](N)Cc1ccc2ccccc2c1)C(=O)N[C@@H](Cc1ccccc1)C(=O)N[C@H](C(N)=O)[C@@H](C)O` [Analog No. 1, H2-β-Nal-D-Cpa-Tyr-D-Trp-Lys-Val-Phe-Thr-NH2] (H-[2Nal][dPhe(4-Cl)]Y[dW]KVFT-NH2) returned an IC50 (3 h) of 3030 nM.

With `CC(C)[C@@H]1NC(=O)[C@H](CCCCN)NC(=O)[C@@H](Cc2c[nH]c3ccccc23)NC(=O)[C@H](Cc2ccc(O)cc2)NC(=O)[C@H](NC(=O)[C@@H](N)Cc2ccc3ccccc3c2)CSSC[C@@H](C(=O)N[C@@H](Cc2ccc3ccccc3c2)C(N)=O)NC1=O` [Analog No. 2, H2-β-Nal-D-Cys-Tyr-D-Trp-Lys-Val-Cys-β-Nal-NH2] (H-[2Nal][dC]Y[dW]KVC[2Nal]-NH2; disulfide 2-7), the IC50 under setting [1] was determined as 40 nM.

`CC(C)[C@@H]1NC(=O)[C@H](CCCCN)NC(=O)[C@@H](Cc2c[nH]c3ccccc23)NC(=O)[C@H](Cc2cccnc2)NC(=O)[C@H](NC(=O)[C@@H](N)Cc2ccc3ccccc3c2)CSSC[C@@H](C(=O)N[C@@H](Cc2ccc3ccccc3c2)C(N)=O)NC1=O` [Analog No. 3, H2-β-Nal-D-Cys-Pal-D-Trp-Lys-Val-Cys-β-Nal-NH2] (H-[2Nal][dC][3Pal][dW]KVC[2Nal]-NH2; disulfide 2-7) had an IC50 (3 h) of 10 nM.

`CC(C)[C@@H]1NC(=O)[C@H](CCCCN)NC(=O)[C@@H](Cc2c[nH]c3ccccc23)NC(=O)[C@H](Cc2cccnc2)NC(=O)[C@H](NC(=O)[C@@H](N)Cc2ccccc2)CSSC[C@@H](C(=O)N[C@@H](Cc2ccc3ccccc3c2)C(N)=O)NC1=O` [Analog No. 4, H2-Phe-D-Cys-Pal-D-Trp-Lys-Val-Cys-β-Nal-NH2] (H-F[dC][3Pal][dW]KVC[2Nal]-NH2; disulfide 2-7) yielded an IC50 (3 h) of 30 nM.

Where the note is “3 h”, `CC(=O)N[C@@H](Cc1ccc2ccccc2c1)C(=O)N[C@@H]1CSSC[C@@H](C(=O)N[C@@H](Cc2ccc3ccccc3c2)C(N)=O)NC(=O)[C@H](C(C)C)NC(=O)[C@H](CCCCN)NC(=O)[C@@H](Cc2c[nH]c3ccccc23)NC(=O)[C@H](Cc2ccc(O)cc2)NC1=O` [Analog No. 5, (H)(CH3CO)-β-Nal-D-Cys-Tyr-D-Trp-Lys-Val-Cys-β-Nal-NH2] (Ac-[2Nal][dC]Y[dW]KVC[2Nal]-NH2; disulfide 2-7) came in with an IC50 of 60 nM.

Under “3 h”, `C[C@@H](O)[C@H](NC(=O)[C@@H]1CSSC[C@@H](NC(=O)[C@@H](N)Cc2ccccc2)C(=O)N[C@@H](Cc2cccnc2)C(=O)N[C@H](Cc2c[nH]c3ccccc23)C(=O)N[C@@H](CCCCN)C(=O)N[C@@H]([C@@H](C)O)C(=O)N1)C(N)=O` [Analog No. 6, H2-Phe-D-Cys-Pal-D-Trp-Lys-Thr-Cys-Thr-NH2] (H-F[dC][3Pal][dW]KTCT-NH2; disulfide 2-7) displayed an IC50 of 900 nM.

Consider `CC(C)(C)[C@@H]1NC(=O)[C@H](CCCCN)NC(=O)[C@@H](Cc2c[nH]c3ccccc23)NC(=O)[C@H](Cc2cccnc2)NC(=O)[C@H](NC(=O)[C@H](N)Cc2ccc(Cl)cc2)CSSC[C@@H](C(=O)N[C@@H](Cc2ccc(Cl)cc2)C(N)=O)NC1=O` [Analog No. 7, H2-D-p-Cl-Phe-D-Cys-Pal-D-Trp-Lys-Tle-Cys-p-Cl-Phe-NH2] (H-[dPhe(4-Cl)][dC][3Pal][dW]K[Tle]C[Phe(4-Cl)]-NH2; disulfide 2-7), for which, for the setting “3 h”, half-maximal inhibition (IC50) required 71 nM.

`CC(C)[C@H](NC(=O)[C@H](CCCCN)NC(=O)[C@@H](Cc1c[nH]c2ccccc12)NC(=O)[C@H](Cc1ccc(O)cc1)NC(=O)[C@@H](Cc1ccc(Cl)cc1)NC(=O)[C@H](N)Cc1ccc2ccccc2c1)C(=O)N[C@@H](Cc1ccccc1)C(=O)N[C@H](C(N)=O)[C@@H](C)O` [Analog No. 8, H2-D-β-Nal-D-Cpa-Tyr-D-Trp-Lys-Val-Phe-Thr-NH2] (H-[d2Nal][dPhe(4-Cl)]Y[dW]KVFT-NH2) displayed an IC50 (3 h) of 3960 nM.

Turning to `CC(C)[C@@H]1NC(=O)[C@H](CCCCN)NC(=O)[C@@H](Cc2c[nH]c3ccccc23)NC(=O)[C@H](Cc2ccc(O)cc2)NC(=O)[C@H](NC(=O)[C@H](N)Cc2ccc3ccccc3c2)CSSC[C@@H](C(=O)N[C@@H](Cc2ccc3ccccc3c2)C(N)=O)NC1=O` [Analog No. 9, H2-D-β-Nal-D-Cys-Tyr-D-Trp-Lys-Val-Cys-β-Nal-NH2] (H-[d2Nal][dC]Y[dW]KVC[2Nal]-NH2; disulfide 2-7), the IC50 under setting [1] was 1360 nM.

`CC(C)[C@@H]1NC(=O)[C@H](CCCCN)NC(=O)[C@@H](Cc2c[nH]c3ccccc23)NC(=O)[C@H](Cc2cccnc2)NC(=O)[C@H](NC(=O)[C@@H](N)C(c2ccccc2)c2ccccc2)CSSC[C@@H](C(=O)N[C@H](C(N)=O)C(c2ccccc2)c2ccccc2)NC1=O` [Analog No. 10, H2-Dip-D-Cys-Pal-D-Trp-Lys-Val-Cys-Dip-NH2] (H-[Dip][dC][3Pal][dW]KVC[Dip]-NH2; disulfide 2-7): it took 620 nM to reach half-maximal inhibition (3 h) (IC50).

In turn, `CC(C)[C@@H]1NC(=O)[C@H](CCCCN)NC(=O)[C@@H](Cc2c[nH]c3ccccc23)NC(=O)[C@H](Cc2c[nH]cn2)NC(=O)[C@H](NC(=O)[C@@H](N)Cc2c(F)c(F)c(F)c(F)c2F)CSSC[C@@H](C(=O)N[C@@H](Cc2c(F)c(F)c(F)c(F)c2F)C(N)=O)NC1=O` [Analog No. 11, H2—F5-Phe-D-Cys-His-D-Trp-Lys-Val-Cys-F5-Phe-NH2] (H-[Phe(F5)][dC]H[dW]KVC[Phe(F5)]-NH2; disulfide 2-7) yielded an IC50 (3 h) of 720 nM.

`CC(C)[C@@H]1NC(=O)[C@H](CCCCN)NC(=O)[C@@H](Cc2c[nH]c3ccccc23)NC(=O)[C@H](Cc2cccnc2)NC(=O)[C@H](NC(=O)[C@@H](N)Cc2ccc(F)cc2)CSSC[C@@H](C(=O)N[C@@H](Cc2ccc(F)cc2)C(N)=O)NC1=O` [Analog No. 12, H2-p-F-Phe-D-Cys-Pal-D-Trp-Lys-Val-Cys-p-F-Phe-NH2] (H-[Phe(4-F)][dC][3Pal][dW]KVC[Phe(4-F)]-NH2; disulfide 2-7) yielded an IC50 (3 h) of 56 nM.

The compound `CC(C)[C@@H]1NC(=O)[C@H](CCCCN)NC(=O)[C@@H](Cc2c[nH]c3ccccc23)NC(=O)[C@H](Cc2cccnc2)NC(=O)[C@H](NC(=O)[C@@H](N)C(c2ccccc2)c2ccccc2)CSSC[C@@H](C(=O)N[C@@H](Cc2ccc3ccccc3c2)C(N)=O)NC1=O` [Analog No. 13, H2-Dip-D-Cys-Pal-D-Trp-Lys-Val-Cys-β-Nal-NH2] (H-[Dip][dC][3Pal][dW]KVC[2Nal]-NH2; disulfide 2-7) yielded a concentration for half-maximal inhibition (IC50) (3 h) of 110 nM.

For the setting “3 h”, `CC(C)[C@@H]1NC(=O)[C@H](CCCCN)NC(=O)[C@@H](Cc2c[nH]c3ccccc23)NC(=O)[C@H](Cc2cccnc2)NC(=O)[C@H](NC(=O)[C@@H](N)Cc2cccc(F)c2)CSSC[C@@H](C(=O)N[C@@H](Cc2cccc(F)c2)C(N)=O)NC1=O` [Analog No. 14, H2-m-F-Phe-D-Cys-Pal-D-Trp-Lys-Val-Cys-m-F-Phe-NH2] (H-[Phe(3-F)][dC][3Pal][dW]KVC[Phe(3-F)]-NH2; disulfide 2-7) displayed an IC50 of 110 nM.

For the setting “3 h”, `CC(C)[C@@H]1NC(=O)[C@H](CCCCN)NC(=O)[C@@H](Cc2c[nH]c3ccccc23)NC(=O)[C@H](Cc2cccnc2)NC(=O)[C@H](NC(=O)[C@@H](N)Cc2ccccc2F)CSSC[C@@H](C(=O)N[C@@H](Cc2ccccc2F)C(N)=O)NC1=O` [Analog No. 15, H2-o-F-Phe-D-Cys-Pal-D-Trp-Lys-Val-Cys-o-F-Phe-NH2] (H-[Phe(2-F)][dC][3Pal][dW]KVC[Phe(2-F)]-NH2; disulfide 2-7) showed an IC50 of 140 nM.
